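Each compound was tested at five concentrations against cells in 96-well plates for 48 hours. The concentration for 50% growth inhibition is given as GI50. TGI: concentration producing complete growth inhibition.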
Legend:
Assay in all cases: DTP human tumour cell line panel, 48 h
K-562 leukemia = test system: K-562 leukemia
OVCAR-5 ovarian = test system: OVCAR-5 ovarian
HS 578T breast = test system: HS 578T breast
SK-MEL-5 melanoma = test system: SK-MEL-5 melanoma
NCI-H23 lung = test system: NCI-H23 lung
SK-MEL-28 melanoma = test system: SK-MEL-28 melanoma
NCI-H522 lung = test system: NCI-H522 lung
SW-620 colon = test system: SW-620 colon
MDA-MB-231 breast = test system: MDA-MB-231 breast
TK-10 renal = test system: TK-10 renal

| SMILES | GI50 (K-562 leukemia) [µM] | TGI (K-562 leukemia) [µM] | GI50 (OVCAR-5 ovarian) [µM] | TGI (OVCAR-5 ovarian) [µM] | GI50 (HS 578T breast) [µM] | TGI (HS 578T breast) [µM] | GI50 (SK-MEL-5 melanoma) [µM] | TGI (SK-MEL-5 melanoma) [µM] | GI50 (NCI-H23 lung) [µM] | TGI (NCI-H23 lung) [µM] | GI50 (SK-MEL-28 melanoma) [µM] | TGI (SK-MEL-28 melanoma) [µM] | GI50 (NCI-H522 lung) [µM] | TGI (NCI-H522 lung) [µM] | GI50 (SW-620 colon) [µM] | TGI (SW-620 colon) [µM] | GI50 (MDA-MB-231 breast) [µM] | TGI (MDA-MB-231 breast) [µM] | GI50 (TK-10 renal) [µM] | TGI (TK-10 renal) [µM] |
| --- | --- | --- | --- | --- | --- | --- | --- | --- | --- | --- | --- | --- | --- | --- | --- | --- | --- | --- | --- | --- |
| Cc1cc(Nc2cc(N3CCN(C)CC3)nc(/C=C/c3ccccc3)n2)n[nH]1 | 0.644 | > 10 | 0.866 | > 9.04 | 0.517 | 1.86 | > 2.11 | > 4.15 | 1.14 | > 5.23 | 1.41 | > 5.48 | 0.336 | > 2.19 | 0.294 | > 10 | 0.966 | 9.95 | 0.797 | > 5.11 |
| CO[C@H]1CC(O[C@@H]2/C(C)=C/C[C@@H]3C[C@@H](C[C@]4(CC[C@H](C)[C@@H](C5CCCCC5)O4)O3)OC(=O)[C@@H]3C=C(C)/C(=N/O)[C@H]4OC/C(=C\C=C\[C@@H]2C)[C@]43O)O[C@@H](C)C1O (some centres undefined) | 1.17 | 2.67 | 0.917 | 2.02 | 1.22 | 5.52 | 1 | 2.29 | 1.01 | 2.65 | 0.952 | 1.97 | 1.12 | 3.13 | 0.777 | 1.5 | 0.768 | 1.59 | 1.13 | 2.71 |
| C/C(=C(\c1ccc(OCCN2CCCCCC2)cc1)c1ccc(OC(=O)c2ccccc2)cc1)c1ccc(Cl)cc1 | 1.31 | 33.3 | 3.93 | 8.82 | 3.04 | 9.76 | 4.55 | 8.84 | 4.73 | 11 | 4.33 | 9.02 | 5.27 | 10.6 | 4.04 | 9.42 | 4.9 | 9.96 | 5.14 | 10.8 |
| COc1cccc(Nc2nc3ccccc3c3occc23)c1 | 6.27 | > 100 | 14.1 | 32.9 | 9.07 | 29.7 | 6.16 | 20.9 | 10.2 | 22.6 | 14.5 | 29.9 | 9.3 | 27 | 16.7 | 34.3 | 8.53 | 31.6 | 5.79 | 17.2 |
| CN1CCN(Cc2ccc(NC(=O)c3cncc(C#Cc4cnc(N)c5cccnc45)c3)cc2C(F)(F)F)CC1 | 0.005 | > 50 | 0.537 | > 50 | 0.196 | 1.61 | 0.571 | 2.13 | 0.496 | > 50 | 0.176 | 1.85 | 0.29 | > 50 | 0.262 | 2.9 | 0.137 | 0.975 | 1.33 | > 50 |
| Cn1c2c(c3c(Cl)nncc31)Cc1ccccc1-2 | 25.9 | > 100 | 27.4 | > 100 | 28 | > 100 | 10.3 | 24.9 | 18.7 | 49 | 30.2 | > 100 | 25.1 | 59.9 | 17.9 | > 100 | 21.2 | 73.5 | 26.2 | > 100 |
| CC[C@@H](C)/C=C(C)/C=C/C(=O)c1c(O)c(-c2ccc(O)cc2)cn(O)c1=O | 0.392 | > 41.2 | 2.71 | 20.8 | 2.83 | 34.5 | 0.201 | 0.562 | 0.562 | 9.93 | 0.674 | 19.2 | 0.399 | 3.74 | 0.55 | 14 | 0.733 | 23 | 0.524 | 15.3 |
| CCNC(=O)Oc1ccc(/C(=C(/C)Cc2ccc(OC)cc2)c2ccc(OCCN(CC)CC)cc2)cc1 | 2 | 6.09 | 3.42 | 12.8 | 2.18 | 5.16 | 1.55 | 2.93 | 2.09 | 5.35 | 1.76 | 3.53 | 2.16 | 4.17 | 1.81 | 3.46 | 1.78 | 3.38 | 2.03 | 6.05 |
| O=C(O)C1[O][Sb][O]C(C(=O)O)C1O (centres undefined) | > 100 | > 100 | > 100 | > 100 | > 100 | > 100 | > 100 | > 100 | > 100 | > 100 | > 100 | > 100 | > 100 | > 100 | > 100 | > 100 | > 100 | > 100 | > 100 | > 100 |
| CC1=CC(C)(C)NN1C1=NS(=O)(=O)c2ccccc2N1C | – | > 100 | – | > 100 | – | > 100 | – | > 100 | – | > 100 | – | > 100 | – | > 100 | – | > 100 | – | > 100 | – | > 100 |
| CC(=O)[C@H]1CCC/C=C/[C@@H]2C[C@H](O)C[C@H]2[C@H](O)/C=C/C(=O)O1 | 0.579 | > 100 | 2.1 | > 62.6 | 2.44 | > 100 | 0.163 | 0.318 | 0.527 | 5.58 | 0.261 | 0.923 | 0.805 | 2.74 | 0.344 | 1.56 | 0.487 | 2.39 | 0.398 | 3.17 |
| Cc1cc2c(-c3nc4ccccn4c3N)c(O)c(O)cc2c(O)c1-c1c(C)cc2c(-c3nc4ccccn4c3N)c(O)c(O)cc2c1O | 1.02 | > 25 | 1.69 | > 25 | 0.797 | > 25 | 0.554 | 1.66 | 0.543 | > 25 | 1.16 | > 25 | 0.625 | 4.88 | 0.988 | > 25 | 3.11 | > 25 | 1.51 | > 25 |
| COc1cc(C2c3cc4c(cc3C(OC(=O)C[n+]3ccccc3)C3COC(=O)C23)OCO4)cc(OC)c1OC (centres undefined) | < 0.0173 | > 100 | – | > 100 | < 0.0241 | > 100 | < 0.01 | < 0.01 | < 0.0217 | > 100 | 53 | > 100 | < 0.01 | < 0.01 | < 0.0203 | > 100 | < 0.0214 | > 22.4 | > 100 | > 100 |
| O=C(CCN1CCCCC1)N1CCc2c([nH]c3ccccc23)C1c1cccnc1 (centres undefined) | – | 75.1 | – | > 92.9 | – | > 100 | – | 41.3 | – | > 100 | – | 37.2 | – | 79.7 | – | > 100 | – | > 74.2 | – | > 100 |
| C#CCN(c1ccc(C(=O)N[C@@H](CCC(=O)N[C@H](CCC(=O)O)C(=O)O)C(=O)O)cc1)C1CCc2cc3nc(CO)[nH]c(=O)c3cc21 (some centres undefined) | > 100 | > 100 | > 100 | > 100 | > 100 | > 100 | 10 | > 100 | 49.1 | > 100 | > 100 | > 100 | > 100 | > 100 | > 44.5 | > 100 | > 100 | > 100 | > 100 | > 100 |
| O=C(c1ccc(Cl)cc1)C(O)c1ccc(Cl)cc1 (centres undefined) | – | > 100 | – | > 100 | – | > 100 | – | > 100 | – | > 100 | – | > 100 | – | > 100 | – | > 100 | – | > 100 | – | > 100 |
| Cn1cc(-c2cnn3c(N)c(Br)c(C4CCCNC4)nc23)cn1 (centres undefined) | 3.85 | > 100 | 6.96 | > 73 | 4 | > 72.3 | 3.64 | 18.7 | 0.546 | > 81.6 | 24.3 | > 100 | 24.5 | > 100 | 15.7 | > 68.6 | 5.53 | 40 | 3.69 | > 83 |

Source: PubChem BioAssay (NCI)
